Reference: PubChem BioAssay (NCI)
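Briefly, cells in 96-well plates were exposed to five compound concentrations for 48 h, and endpoints were estimated by linear interpolation. TGI denotes the concentration required for complete inhibition of growth.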

Assays:
Assay in all cases: NCI-60 cell line screen, 48 h
MCF7 breast = system: MCF7 breast
HL-60(TB) leukemia = system: HL-60(TB) leukemia
OVCAR-5 ovarian = system: OVCAR-5 ovarian
UACC-62 melanoma = system: UACC-62 melanoma
CAKI-1 renal = system: CAKI-1 renal
SF-268 CNS = system: SF-268 CNS
NCI-H522 lung = system: NCI-H522 lung
SK-MEL-2 melanoma = system: SK-MEL-2 melanoma
OVCAR-4 ovarian = system: OVCAR-4 ovarian
MDA-N = system: MDA-N
NCI-H460 lung = system: NCI-H460 lung
MDA-MB-435 = system: MDA-MB-435
KM12 colon = system: KM12 colon
U251 CNS = system: U251 CNS
786-0 renal = system: 786-0 renal
NCI/ADR-RES ovarian = system: NCI/ADR-RES ovarian
OVCAR-8 ovarian = system: OVCAR-8 ovarian
A498 renal = system: A498 renal
SK-MEL-28 melanoma = system: SK-MEL-28 melanoma
HCT-15 colon = system: HCT-15 colon
SK-MEL-5 melanoma = system: SK-MEL-5 melanoma
SF-295 CNS = system: SF-295 CNS
MDA-MB-231 breast = system: MDA-MB-231 breast
M14 melanoma = system: M14 melanoma
HCT-116 colon = system: HCT-116 colon
UACC-257 melanoma = system: UACC-257 melanoma
HOP-62 NSCLC = system: HOP-62 NSCLC
CCRF-CEM leukemia = system: CCRF-CEM leukemia
K-562 leukemia = system: K-562 leukemia
IGROV1 ovarian = system: IGROV1 ovarian
NCI-H23 lung = system: NCI-H23 lung
MALME-3M melanoma = system: MALME-3M melanoma
MOLT-4 leukemia = system: MOLT-4 leukemia
HT29 colon = system: HT29 colon
OVCAR-3 ovarian = system: OVCAR-3 ovarian
COLO 205 colon = system: COLO 205 colon
EKVX NSCLC = system: EKVX NSCLC
RXF 393 renal = system: RXF 393 renal
PC-3 prostate = system: PC-3 prostate
NCI-H226 lung = system: NCI-H226 lung
UO-31 renal = system: UO-31 renal
SN12C renal = system: SN12C renal
T-47D breast = system: T-47D breast
SW-620 colon = system: SW-620 colon
LOX IMVI melanoma = system: LOX IMVI melanoma
RPMI-8226 leukemia = system: RPMI-8226 leukemia
ACHN renal = system: ACHN renal
A549 NSCLC = system: A549 NSCLC
SNB-19 CNS = system: SNB-19 CNS
HS 578T breast = system: HS 578T breast
BT-549 breast = system: BT-549 breast
TK-10 renal = system: TK-10 renal
DU-145 prostate = system: DU-145 prostate
SNB-75 CNS = system: SNB-75 CNS
HCC-2998 colon = system: HCC-2998 colon
SR leukemia = system: SR leukemia
SK-OV-3 ovarian = system: SK-OV-3 ovarian
SF-539 CNS = system: SF-539 CNS
HOP-92 NSCLC = system: HOP-92 NSCLC

## Cc1ccc2c(=O)c(-c3nnsn3)c[nH]c2n1
MCF7 breast
  TGI: > 100 µM
HL-60(TB) leukemia
  TGI: > 100 µM
OVCAR-5 ovarian
  TGI: > 100 µM
UACC-62 melanoma
  TGI: > 100 µM
CAKI-1 renal
  TGI: > 100 µM
SF-268 CNS
  TGI: > 100 µM
NCI-H522 lung
  TGI: > 100 µM
SK-MEL-2 melanoma
  TGI: > 100 µM
OVCAR-4 ovarian
  TGI: > 100 µM
MDA-N
  TGI: > 100 µM
NCI-H460 lung
  TGI: > 100 µM
MDA-MB-435
  TGI: > 100 µM
KM12 colon
  TGI: > 100 µM
U251 CNS
  TGI: > 100 µM
786-0 renal
  TGI: > 100 µM
NCI/ADR-RES ovarian
  TGI: > 100 µM
OVCAR-8 ovarian
  TGI: > 100 µM
A498 renal
  TGI: > 100 µM
SK-MEL-28 melanoma
  TGI: > 100 µM
HCT-15 colon
  TGI: > 100 µM
SK-MEL-5 melanoma
  TGI: > 100 µM
SF-295 CNS
  TGI: > 100 µM
MDA-MB-231 breast
  TGI: > 100 µM
M14 melanoma
  TGI: > 100 µM
HCT-116 colon
  TGI: > 100 µM
UACC-257 melanoma
  TGI: > 100 µM
HOP-62 NSCLC
  TGI: > 100 µM
CCRF-CEM leukemia
  TGI: > 100 µM
K-562 leukemia
  TGI: > 100 µM
IGROV1 ovarian
  TGI: > 100 µM
NCI-H23 lung
  TGI: > 100 µM
MALME-3M melanoma
  TGI: > 100 µM
MOLT-4 leukemia
  TGI: > 100 µM
HT29 colon
  TGI: > 100 µM
OVCAR-3 ovarian
  TGI: > 100 µM
COLO 205 colon
  TGI: > 100 µM
EKVX NSCLC
  TGI: > 100 µM
RXF 393 renal
  TGI: > 100 µM
PC-3 prostate
  TGI: > 100 µM
NCI-H226 lung
  TGI: > 100 µM
UO-31 renal
  TGI: > 100 µM
SN12C renal
  TGI: > 100 µM
T-47D breast
  TGI: > 100 µM
SW-620 colon
  TGI: > 100 µM
LOX IMVI melanoma
  TGI: > 100 µM
RPMI-8226 leukemia
  TGI: > 100 µM
ACHN renal
  TGI: > 100 µM
A549 NSCLC
  TGI: > 100 µM
SNB-19 CNS
  TGI: > 100 µM
HS 578T breast
  TGI: > 100 µM
BT-549 breast
  TGI: > 100 µM
TK-10 renal
  TGI: > 100 µM
DU-145 prostate
  TGI: > 100 µM

## COC(=O)C1=C(O)C(C(=O)OC)[C@]2(O)[C@H](C(=O)OC)[C@H]1C[C@@H](c1ccccc1OC)[C@H]2C(=O)OC (stereo partly specified)
SNB-75 CNS
  TGI: > 71.3 µM
HCC-2998 colon
  TGI: 22.2 µM
HL-60(TB) leukemia
  TGI: 10.5 µM
OVCAR-5 ovarian
  TGI: 16.4 µM
UACC-62 melanoma
  TGI: 18.3 µM
CAKI-1 renal
  TGI: 17.5 µM
SF-268 CNS
  TGI: 16.5 µM
NCI-H522 lung
  TGI: 5 µM
SK-MEL-2 melanoma
  TGI: 20.1 µM
OVCAR-4 ovarian
  TGI: 31.3 µM
MDA-N
  TGI: 4.79 µM
NCI-H460 lung
  TGI: > 41.8 µM
MDA-MB-435
  TGI: 9.79 µM
KM12 colon
  TGI: 21.9 µM
U251 CNS
  TGI: 19.3 µM
786-0 renal
  TGI: 20.4 µM
NCI/ADR-RES ovarian
  TGI: 8.89 µM
SR leukemia
  TGI: 7.04 µM
OVCAR-8 ovarian
  TGI: 11.8 µM
A498 renal
  TGI: 17.4 µM
SK-MEL-28 melanoma
  TGI: 27.1 µM
HCT-15 colon
  TGI: 13.5 µM
SK-MEL-5 melanoma
  TGI: 13.2 µM
SF-295 CNS
  TGI: 25.6 µM
MDA-MB-231 breast
  TGI: 29.7 µM
M14 melanoma
  TGI: 10.2 µM
HCT-116 colon
  TGI: 12.9 µM
UACC-257 melanoma
  TGI: > 51.6 µM
SK-OV-3 ovarian
  TGI: > 50.9 µM
HOP-62 NSCLC
  TGI: 39.1 µM
CCRF-CEM leukemia
  TGI: 21.1 µM
K-562 leukemia
  TGI: > 38.9 µM
SF-539 CNS
  TGI: > 23.7 µM
IGROV1 ovarian
  TGI: 11.3 µM
NCI-H23 lung
  TGI: 14.8 µM
MALME-3M melanoma
  TGI: 13.5 µM
HOP-92 NSCLC
  TGI: 15.7 µM
MOLT-4 leukemia
  TGI: 25.5 µM
HT29 colon
  TGI: 14.6 µM
OVCAR-3 ovarian
  TGI: 35.4 µM
COLO 205 colon
  TGI: 13.3 µM
EKVX NSCLC
  TGI: 29.6 µM
RXF 393 renal
  TGI: 20.2 µM
PC-3 prostate
  TGI: 20.7 µM
NCI-H226 lung
  TGI: 20.7 µM
UO-31 renal
  TGI: 21.6 µM
SN12C renal
  TGI: 17.4 µM
T-47D breast
  TGI: > 76.1 µM
SW-620 colon
  TGI: 19.6 µM
LOX IMVI melanoma
  TGI: 9.35 µM
RPMI-8226 leukemia
  TGI: 8.82 µM
ACHN renal
  TGI: 21.3 µM
A549 NSCLC
  TGI: 21.7 µM
SNB-19 CNS
  TGI: 19.7 µM
HS 578T breast
  TGI: 11 µM
BT-549 breast
  TGI: 11.2 µM
TK-10 renal
  TGI: > 54.7 µM
DU-145 prostate
  TGI: 26.2 µM
